Measured values from patent US7741275B2, “Agents and use thereof” (Lipopeptide AB, priority 2004, dated 2010).

Key:
[1] = test system: Caspase-3; test: Caspase-3 activity assay; type: cell-based, human
Method: (§1) 25,000 cells/well were plated in 6-well plate culture dishes. […], cells were treated with 0, 0.23, 0.46, 0.69, 0.9, 1.15, 2.3, 4.6 and 11.5 μM LL-37. Each treatment was performed in triplicate. The peptide was diluted in medium (DMEM 5% FCS to HaCaT cells and Epilife basal Medium supplemented with 0.1% FCS to HEKn cells). The cells were treated during a total time of 24 h. After LL-37 stimulation, the topoisomerase I inhibitor camptothecin (CAM) (Sigma Chemical Co., St. Luis, Mo.) in dimethylsulfoxide was added to the cells to a final 6 μM concentration. Cells were further incubated for 24 h before analysis.
Caspase-3 enzymatic activity was estimated using the fluorometric substrate VDVAD-AMC (100 μM) and DEVD-AMC (50 μM) as previously described.

[2] = test system: HaCaT and HEKn cells; type: cell-based
Method: as §1
Two apoptotic parameters, the loss of the membrane integrity and DNA decrease were evaluated by flow cytometry.
Evaluation of Membrane integrity: After stimulation with LL-37, and treatment with CAM, cells were harvested by trypsinization. The cells were then washed in cold Dulbecco's phosphate-buffered saline (PBS) and counted with a haemocytometer (Hausser Scientific, Horsham, Pa.). Cell density was adjusted to 1×10^6 cells/ml in PBS. Apoptosis was detected by staining with propidium iodide and YO-PRO-1 dye (Molecular Probes, Eugene, Oreg.). Stained cells were analyzed on a FACScan (Beckton-Dickinson, San Jose, Calif.). Cells were gated for analysis on the basis of the forward (FSC) and side light scatter characteristics (SSC). Analysis of cells expressing YO-PRO and propidium iodide (PI) was done using Cell Quest software (Becton Dickinson), which provided percentages of YO-PRO and PI-positive cells. Cells that stained green with YO-PRO were considered apoptotic. Cells that stained also red, with propidium iodide, were necrotic. Live, viable cells take up little or no dye.
Analysis of DNA content by flow cytometry. The PI/RNase staining buffer (BectonDickinson) was used for this analysis. Trypsinized cells were fixed in cold 70% (v/v) ethanol, and stored until its use at 4° C. The DNA content was measured through incorporation of propidium iodide into DNA. Fluorometric analysis was performed using a FACScan flow cytometer (Becton and Dickinson, Mountain View, Calif., USA). FSC (forward light scatter) and SSC (side light scatter) of particles were simultaneously measured to determine the size and the granularity of cells. The red fluorescence of PI stained nuclei was detected in the FL-4 window (600 nm band pass filter and 35 nm bandwidth). The intensity of fluorescence was proportional to the cellular DNA content. Each histogram was divided into two parts: (1) the M1 area representing asynchronous, non-apoptotic, live cells (cells in G1,S and G2 phases with DNA content equal to 2n to 4N); and (2) the M2 area representing apoptotic cells with a smaller quantity of DNA in comparison to living cells.

[3] = test system: IAP-2 mRNA; test: IAP-2 expression by RT-PCR; type: cell-based, human
Method: HEKn cells were treated with 2 μM LL-37 and harvested at different time points after stimulation. RNA from these cells was reverse transcribed and the expression of IAP-2 was determined by real-time PCR. The transcription level of IAP-2 for each time point is shown normalized against 18S RNA and relative to the untreated cells (control set as 1 for each time point).
HEKn cells were treated with or without the specific COX-2 inhibitor SC-791 (25 nM) and further incubated for 6 hours with or without LL-37 (2 μM).
(§2) Total RNA was isolated from cells after different treatments according to the manufacturer's directions by using the Quiagen RNasy kit (Operon Biotechnologies, Cologne, Germany). Reverse transcription was performed with a first-strand synthesis kit (Amershan Biosciences)

[4] = Antibacterial assay of synthetic LL-37; conditions: synthetic LL-37 peptide
Description: LL-37 peptide was synthesised and purified by HPLC to a purity of 98% (PolyPeptide Laboratories A/S, Hillerød, Denmark). Biological activity of the peptide was confirmed in an antibacterial assay^18.

[5] = test system: ERK1/2; test: Assay of phosphorylated ERK1/2 in LL-37 treated HaCaT cells; type: cell-based, human; conditions: LL-37 10 μg/ml, Western blot
Method: HaCaT cells were seeded at 10% confluence and kept in DMEM with 0.2% FCS for 36 hours. For the next 48 hours, cells were cultured in DMEM with 1% or 5% FCS respectively, and in presence or absence of LL-37 at 10 μg/ml, with daily changes of medium. EGF at 10 ng/ml served as positive control. The expression of phosphorylated ERK 1/2 was evaluated by Western blot analysis with a mouse monoclonal antibody (Cell Signaling Technology, Beverly Mass.).

[6] = test system: COX-2 mRNA; test: COX-2 expression by RT-PCR; type: cell-based, human; conditions: HEKn cells, 2.3 μM LL-37
Method: HEKn cells were treated with 2 μM LL-37 and harvested at 6, 12 and 24 hours after stimulation. Untreated cells were used as a control in each time point (light grey columns). RNA from these cells was reverse transcribed and the relative expression of COX-2 with respect to the control was determined by qPCR as above.
as §2

[7] = test system: HaCaT cells; test: LL-37 peptide treatment of epithelial cells, [3H]-Thymidine incorporation; type: cell-based, human; conditions: 5% fetal calf serum, LL-37 10 μg/ml, vs non treated control
Method: A spontaneously immortalised human keratinocyte cell line (HaCaT)^19 was cultured in DMEM (Dulbecco's modified Eagle's medium, Gibco BRL, Life Technologies, Scotland) supplemented with 10% FCS (fetal calf serum, Hy-Clone, Boule Nordic AB Huddinge, Sweden) and antibiotics (PEST=penicillin 50 U/l and streptomycin […], Gibco BRL). Cells were harvested at 70% confluence and seeded in 96-well plates, 2000 cells in 100 μl medium (DMEM+10% FCS and PEST). After 12 hours, medium was changed to serum free medium (DMEM+PEST) and cells were synchronized in G0/G1 by serum starvation for 72 hours and then treated with 100 μl of medium (DMEM+5% FCS+PEST) containing synthetic biologically active LL-37 peptide at 10 μg per ml. Cells treated with only DMEM+5% FCS and PEST served as control. The experiments were performed in quadruplicates. Cell proliferation was evaluated by [^3H]-Thymidine incorporation. Cells were treated with 1 μCi/well of [^3H]-Thymidine (20.00 Ci/mmol, Perkin Elmer Life Sciences Inc. Boston, Mass.) during 12 hours and harvested (Harvester 96, Tomtec, Orage, Conn.) onto a glass fiber filter (Wallac Oy Turku, Finland). The incorporation of [^3H]-Thymidine was determined using a liquid scintillation counter (Microbeta Pluss, Wallac Sveriges AB). The experiment was repeated twice in 6 replicates.

[8] = test system: hCAP18 transcription; test: Initial studies on small-molecule control of hCAP18 transcription; type: cell-based, human
Description: Since thus small molecules can control the expression of hCAP18, it is meaningful to systematically screen for inhibitory compounds. Initial studies have shown that estrogen and some of its metabolites have no effect. […] Based on these findings, antagonists to vitamin D, such as ZK159222 (Schering A G), and TEI-9647 (Tejin Institute for Medical Research, Tokyo), and antagonists to vitamin A such as AGN193109 (Allergen Pharmaceuticals), are potential agents for use in the methods of the invention.

[9] = test system: HaCaT cells; test: Pertussis toxin assay (LL-37 induced proliferation); type: cell-based, human; conditions: pretreatment with pertussis toxin 20 ng/ml 24 h before LL-37 (5 or 10 μg/ml); not shown
Method: To assess the involvement of FPRL1 in mediating the stimulation of epithelial cell proliferation induced by hCAP18/LL-37, HaCaT cells were treated with the G-protein-coupled receptor inhibitor pertussis toxin. Cells were preincubated with pertussis toxin (Sigma-Aldrich, Switzerland) 24 h before the LL-37 treatment in a final toxin concentration of 20 ng/ml. Medium was changed 48 hours after cell seeding and the HaCaT cells were treated with 100 μl of medium (DMEM+5% FCS and PEST) containing synthetic biologically active LL-37 peptide at 5 or 10 μg per ml respectively. Cells treated with only DMEM+5% FCS and PEST served as control.

[10] = test system: hCAP18 transcription; conditions: via vitamin D receptor binding to response element in hCAP18 promoter; cited from earlier work

CC[C@@]1(O)C(=O)OCc2c1cc1n(c2=O)Cc2cc3ccccc3nc2-1 [CAM, camptothecin]
time of peak caspase activity ([1]; keratinocytes, CAM treatment): 24 h | caspase activity ([1]; keratinocytes, within the first 12 hours of CAM treatment): significantly increased | induction of apoptosis (membrane integrity, DNA profile) ([2]; 6 μM CAM, 24 hours, HaCaT and keratinocytes): morphological changes characteristic of apoptosis

NS(=O)(=O)c1ccc(-c2c(-c3ccccc3)noc2C(F)F)cc1 [SC-791]
LL-37 induced increase of IAP-2 mRNA after COX-2 inhibition ([3]; HEKn cells pretreated 12 h with 25 nM SC-791, then 2 μM LL-37): did not increase the IAP-2 mRNA levels

LL-37: synthetic, biologically active C-terminal 37 amino acid peptide of human cathelicidin hCAP18
biological activity in antibacterial assay [4]: confirmed | activation of ERK1/2 [5]: no significant activation | COX-2 mRNA levels [6]: time-dependent increase in mRNA levels | time of highest COX-2 mRNA levels [6]: 12 h | effect on camptothecin-induced caspase activation ([1]; pre-treatment with 2.3 μM LL-37): decreased camptothencin-induced caspase activation | cell proliferation ([3H]-Thymidine incorporation) [7]: significant increase in cell proliferation | IAP-2 mRNA ([3]; HEKn cells, 2.3 μM LL-37, from 6 hours to 12 hours after stimulation): increased IAP-2 mRNA | c-IAP-2 levels ([3]; HEKn cells, LL-37 below 2.3 μM, data not shown): did not affect the c-IAP-2 levels | amount of apoptotic cells ([2]; 24 h with LL-37 alone or simultaneously with LL-37 and CAM, data not shown): not change in the amount of apoptotic cells | inhibition of CAM induced apoptosis ([2]; LL-37 0.23 μM up to 2,3 μM for 24 hours before CAM 6 μM 24 h, HEKn and HaCaT cells): inhibited both DNA fragmentation and loss of membrane permeability | cell death ([2]; LL-37 4.6 μM and 11.5 μM, 24 hours before CAM, non-apoptotic mechanisms): caused cell death | cytotoxicity (increased fraction of necrotic but not apoptotic cells) ([2]; LL-37 4.6 and 11.5 μM, alone or simultaneous with CAM): cytotoxic

Vitamin A
hCAP18 transcription ([8]; breast cancer cell line ZR-75-1): stimulates transcription | hCAP18 transcription ([8]; skin keratinocytes): inhibits the transcription

estrogen
effect on hCAP18 expression ([8]; initial studies, cells not given): no effect

pertussis toxin
suppression of proliferation of HaCaT cells [9]: approximately 50%

vitamin D
induction of hCAP18 transcription [10]: strongest inducer of hCAP18 transcription
